In brackets after ≈: the same amount, converted by molar mass. Read-outs that look alike come from different tables or passages of the source.
How the values were obtained:
HIV type 2 (strain ROD) = assay: In vitro anti-viral replication test (method of E De Clercq, MTT) against HIV type 2 (strain ROD) in infected MT-4 cells; assay type: cell-based, HIV-2; details: for HIV-2 SI: selectivity index, ratio CC50/EC50; for biological (inhibitory) activity against HIV-2, in words: in vitro, "significant" = CC50≥45 μg/mL and selectivity index ≥50
Method: (§1) The anti-viral replication efficiency of the molecules of the chemical composition of the invention was tested in vitro against the replication of the viruses HIV type 1 (strain MO and HIV type 2 (strain ROD) in the infected MT-4 cells.
(§2) More specifically, the antiretroviral activity of the molecules was tested by effectively carrying out the method of E De Clercq in a microplate.
(§3) This method consists of producing a cell culture of MT-4 in a microplate, containing as cell culture medium: the medium developed by the Roswell Park Memorial Institute (referred to as “RPMI 1640”), comprising of foetal calf serum, glutamine, sodium bicarbonate, and gentamicin as bacterial inhibitor.
The molecules of the chemical composition of the invention are added at different concentrations into the cell growth medium. […] The MT4 cells placed in the presence of the molecules to be tested are referred to as “treated cells”.
(§4) In each cell growth well, a defined amount of HIV-1 or HIV-2 is added in order to obtain the same concentration of virus in each well.
(§5) The cells placed in the presence of the HIV are referred to as “infected cells”.
(§6) Five days after the start of the process of infecting the MT4 cells with HIV-1 or HIV-2 in the presence of the molecules to be tested at different concentrations, a count is taken of the number of living cells by means of an MTT (tetrazolium salt) colorimetric assay by measuring the optical density at 540 nm.
(§7) As negative controls, use is made of cells without HIV 1 or HIV 2, referred to as “non-infected cells”, as well as of cells without the molecules to be tested referred to as “untreated cells”.
(§8) Thus, succinctly stated, the method of E De Clercq provides the means to obtain a density measurement at 540 nm for: • the cells infected with HIV-1 or HIV-2, treated with the molecules of the composition of the invention; • the cells not infected with HIV, treated with the molecules of the composition of the invention; • the cells infected with HIV-1 or HIV-2, not treated with the molecules of the composition of the invention; • the cells not infected with HIV, not treated with the molecules of the composition of the invention.
(§9) In particular, the effectiveness of the molecules of the composition of the invention was tested: • by measurement and calculation of the (median) 50% inhibitory concentration (IC50); • by measurement and calculation of the 50% cytotoxic concentration (CC50); • by measurement and calculation of the 50% effective concentration dose (EC50); and • by measurement and calculation of the selectivity index (SI), of the fractions containing the said molecules in the presence of the two strains of HIV.
(§10) The IC50 is the concentration of the molecule that makes it possible to decrease by 50% the viral proliferation of the negative control in vitro for a given time period, that is to say of the HIV without substance, only in its growth culture medium.
(§11) The EC50 is calculated using the following formula:
[(ODT)HIV^+]−[(ODC)HIV^+]/[(ODT)HIV^−]−[(ODC)HIV^−]×100
Where: • (ODT)HIV^+ represents the optical density measurement at 540 nm, 5 days after infection, for the cells infected with HIV and treated with the composition of the invention, that is to say in the presence of molecules of the composition of the invention; • (ODC) HIV^+ represents the optical density measurement at 540 nm, 5 days after infection, for the cells infected with HIV in the absence of the molecules of the composition of the invention; • (ODT) HIV^− represents the optical density measurement at 540 nm, 5 days after infection, for the cells not infected with HIV and treated with the composition of the invention, that is to say in the presence of the molecules of the composition of the invention; i(ODC) HIV^− represents the optical density measurement at 540 nm, 5 days after infection, for the cells not infected with HIV in the absence of the molecules of the composition of the invention.
The selectivity index represents the ratio CC50/EC50. […]

MT-4 cells = assay: 50% cytotoxic concentration in MT-4 cells (MTT); assay type: cell-based; details: for CC50: Homo sapiens; for HIV-1 CC 50: HIV-1, average over duplicates; for HIV-2 CC 50: HIV-2, average over duplicates
Method: as §3
(§12) The molecules of the chemical composition of the invention are added at different concentrations into the cell growth medium. Each concentration of molecules to be tested is prepared in triplicate. The MT4 cells placed in the presence of the molecules to be tested are referred to as “treated cells”.
as §6, §7, §8, §9
The CC50 is the concentration of active molecules that makes it possible to decrease by 50% the […]. In other words, it is the concentration of active molecules that makes it possible to decrease by 50% the viability of cells.

HIV type 1 = assay: In vitro anti-viral replication test (method of E De Clercq, MTT) against HIV type 1 in infected MT-4 cells; assay type: cell-based, HIV-1; details: for HIV-1 SI: selectivity index, ratio CC50/EC50; for biological (inhibitory) activity against HIV-1, in words: in vitro, "significant" = CC50≥45 μg/mL and selectivity index ≥50
Method: as §1, §2, §3, §12, §4, §5, §6, §7, §8, §9, §10, §11
[(ODT)HIV^+]−[(ODC)HIV^+]/[(ODT)HIV^−]−[(ODC)HIV^−]×100 […]

HIV-1 or HIV-2 = assay: In vitro anti-HIV test of fractions and isolated compounds, virus type not separated in the statement; assay type: cell-based
Method: The anti-HIV activity was tested in vitro according to the method of Clerq E on each of the abovementioned fractions AsC4.1, AsC4.2, AsC4.3, AsC4.4, AsC4.5, AsC4.6, AsC4.7 and AsC4.8.
More than ten different compounds were obtained for all of the different mobile phases used. Each compound was individually tested against HIV-1 and HIV-2 according to the in vitro method mentioned above.

[1] = "significant" = CC50≥45 μg/mL and selectivity index ≥50
[2] = infected MT-4 cells, 5 days after infection, MTT, average over duplicates

Structure (SMILES) | HIV-2 SI (HIV type 2 (strain ROD)) | HIV-1 SI (HIV type 1) | biological (inhibitory) activity against HIV-2, in words (HIV type 2 (strain ROD)) | biological activity against HIV (HIV-1 or HIV-2), in words (HIV-1 or HIV-2; [1]) | biological (inhibitory) activity against HIV-1, in words (HIV type 1) | HIV-2 IC 50 (HIV type 2 (strain ROD); [2]) [µg/mL] | HIV-1 CC 50 (MT-4 cells) [µg/mL] | HIV-2 CC 50 (MT-4 cells) [µg/mL] | HIV-1 IC 50 (HIV type 1; [2]) [µg/mL] | other results
Cc1ccnc2c1NC(=O)c1cccnc1N2C1CC1 [Nevirapine, nevirapine] | <1 | >4 |  |  |  |  |  |  |  | IC50 (HIV type 2 (strain ROD); Human immunodeficiency virus 2, MT4, 120 h, infected MT-4 cells, 5 days after infection, MTT, average over duplicates, read-out: HIV-2 IC 50): > 4 µg/mL; CC50 (MT-4 cells; MT4, HIV-1, average over duplicates, read-out: HIV-1 CC 50): 0.011 µg/mL (≈ 0.0413 µM); CC50 (MT-4 cells; MT4, HIV-2, average over duplicates, read-out: HIV-2 CC 50): > 4 µg/mL; IC50 (HIV type 1; Human immunodeficiency virus 1, MT4, 120 h, infected MT-4 cells, 5 days after infection, MTT, average over duplicates, read-out: HIV-1 IC 50): 0.05 µg/mL (≈ 0.188 µM)
CC(=O)OC1CCC2(C)C3CCC4C(=CC(=O)C5C(C)(C)CCCC45C)C3(C)CCC2C1(C)C (centres unmarked) [molecule A] |  |  | at least two times greater | significant biological activity | at least two times greater |  |  |  |  | biological activity against HIV (HIV-1 or HIV-2), in words (HIV-1 or HIV-2; "significant" = CC50≥45 μg/mL and selectivity index ≥50, listed as AsC4.5.1.1): “significant” biological activity
CC1(C)CC[C@]2(C(=O)O)CC=C3[C@]4(C)CCC5C(C)(C)[C@@H](OC(=O)c6ccccc6)[C@H](O)C[C@]5(C)C4CC[C@@]3(C)C2C1 (some centres unmarked) [molecule B] |  |  | at least two times greater | significant biological activity | at least two times greater |  |  |  |  | biological activity against HIV (HIV-1 or HIV-2), in words (HIV-1 or HIV-2; "significant" = CC50≥45 μg/mL and selectivity index ≥50, listed as AsC4.5.7.2): “significant” biological activity
Nc1ccn([C@H]2CC[C@@H](CO)O2)c(=O)n1 [Dideoxycitidine, dideoxycitidine] | >20 | >20 |  |  |  | 0.19 | 0.12 | 0.11 | 0.16 | 
O=c1[nH]cnc2c1ncn2[C@H]1CC[C@@H](CO)O1 [Dideoxyinosine, dideoxyinosine] | >50 | >50 |  |  |  | 3.78 | 0.68 | 1.22 | 2.09 | 

Reference: patent US20190350995A1, “THERAPEUTIC COMPOSITION DERIVED FROM ANTHOSTEMA SENEGALENSE” (LABORATOIRE MICHEL IDERNE, priority 2016, published 2019)
